Test results taken from US8575156B2, “Cyclic inhibitors of 11β-hydroxysteroid dehydrogenase 1” (Vitae Pharmaceuticals, Inc., priority 2007, dated 2013).
Like-named read-outs stand apart in the source and are kept apart here.

Biological target: 11β-HSD1 (Homo sapiens, UniProt P28845)
Experiment: biochemical
Conditions: for IC50: IC50 Range, Biological Test Example 1, microsomes from CHO cells overexpressing human 11β-HSD1
[1] = read-out: Average % inhibition at 100 nM, Biological Test Example 1, 100 nM compound
[2] = read-out: Average % inhibition at 100 nM

Sequence of 11β-HSD1 (P28845 whole entry): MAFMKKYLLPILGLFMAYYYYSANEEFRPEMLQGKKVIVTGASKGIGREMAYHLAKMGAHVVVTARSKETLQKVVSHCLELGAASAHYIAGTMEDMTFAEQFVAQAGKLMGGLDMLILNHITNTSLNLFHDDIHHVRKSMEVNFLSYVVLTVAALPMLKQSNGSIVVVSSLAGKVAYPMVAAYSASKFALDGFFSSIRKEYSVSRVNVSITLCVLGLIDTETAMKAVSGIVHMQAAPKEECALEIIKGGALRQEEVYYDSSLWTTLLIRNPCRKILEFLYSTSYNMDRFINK

SMILES | IC50 | inhibition at 0.1 µM [1] | inhibition at 0.1 µM [2]
CC[C@@H](c1ccc(Br)cc1)N1CC[C@](CCCO)(c2ccccc2)OC1=O [EXAMPLE 220, (R)-3-((S)-1-(4-bromophenyl)propyl)-6-(3-hydroxypropyl)-6-phenyl-1,3-oxazinan-2-one] | < 0.1 µM |  | 85.5%
C[C@@H](c1ccc(-c2ccc(F)cc2F)cc1)N1CC[C@](CCS(C)(=O)=O)(c2ccc(F)cc2)OC1=O [EXAMPLE 229, (S)-3-((S)-1-(2′,4′-difluorobiphenyl-4-yl)ethyl)-6-(4-fluorophenyl)-6-(2-(methylsulfonyl)ethyl)-1,3-oxazinan-2-one] | < 0.1 µM |  | 81.6%
C=CC[C@]1(c2ccc(F)cc2)CCN([C@@H](C)c2ccc(C(=O)N3CCCCC3)cc2)C(=O)O1 [EXAMPLE 243, (R)-6-allyl-6-(4-fluorophenyl)-3-((S)-1-(4-(piperidine-1-carbonyl)phenyl)ethyl)-1,3-oxazinan-2-one] | < 0.1 µM | 38.9% | 
C[C@@H](c1ccc(-c2ccc(F)cc2)cc1)N1CC[C@](CCC(C)(C)O)(c2ccccc2)OC1=O [EXAMPLE 248, (R)-3-((S)-1-(4′-fluorobiphenyl-4-yl)ethyl)-6-(3-hydroxy-3-methylbutyl)-6-phenyl-1,3-oxazinan-2-one] | < 0.1 µM | 96.7% | 
CC(=O)c1ccc(-c2ccc([C@H](C)N3CC[C@](CCCO)(c4ccccc4)OC3=O)cc2)s1 [EXAMPLE 249, (R)-3-((S)-1-(4-(5-acetylthiophen-2-yl)phenyl)ethyl)-6-(3-hydroxypropyl)-6-phenyl-1,3-oxazinan-2-one] | < 0.1 µM | 96.3% | 
C[C@@H](c1ccc(-c2ccc(F)cc2F)cc1)N1CC[C@](CCC(N)=O)(c2ccccc2)OC1=O [EXAMPLE 250, 3-((R)-3-((S)-1-(2′,4′-difluorobiphenyl-4-yl)ethyl)-2-oxo-6-phenyl-1,3-oxazinan-6-yl)propanamide] | < 0.1 µM | 97.1% | 
CC(N)c1ccc(-c2ccc([C@H](C)N3CC[C@](CCCO)(c4ccccc4)OC3=O)cc2)s1 (stereo partly drawn) [EXAMPLE 251, (6R)-3-((1S)-1-(4-(5-(1-aminoethyl)thiophen-2-yl)phenyl)ethyl)-6-(3-hydroxypropyl)-6-phenyl-1,3-oxazinan-2-one] | < 0.1 µM | 90.9% | 
CC[C@@H](c1ccc(-c2ccc(F)cc2)cc1)N1CC[C@](CCCO)(c2ccc(F)cc2)OC1=O [EXAMPLE 252, (R)-3-((S)-1-(4′-fluorobiphenyl-4-yl)propyl)-6-(4-fluorophenyl)-6-(3-hydroxypropyl)-1,3-oxazinan-2-one] | < 0.1 µM | 99% | 
CC[C@@H](c1ccc(-c2ccc(F)cc2F)cc1)N1CC[C@](CCCO)(c2ccccc2)OC1=O [EXAMPLE 253, (R)-3-((S)-1-(2′,4′-difluorobiphenyl-4-yl)propyl)-6-(3-hydroxypropyl)-6-phenyl-1,3-oxazinan-2-one] | < 0.1 µM | 93.3% | 
CC(O)c1ccc(-c2ccc([C@H](C)N3CC[C@](CCCO)(c4ccccc4)OC3=O)cc2)s1 (stereo partly drawn) [EXAMPLE 254, (6R)-3-((1S)-1-(4-(5-(1-hydroxyethyl)thiophen-2-yl)phenyl)ethyl)-6-(3-hydroxypropyl)-6-phenyl-1,3-oxazinan-2-one] | < 0.1 µM | 96% | 
C[C@@H](c1ccc(N2CCCCS2(=O)=O)cc1)N1CC[C@](CCO)(c2ccc(F)cc2)OC1=O [EXAMPLE 259, (S)-6-(4-fluorophenyl)-6-(2-hydroxyethyl)-3-((S)-1-(4-(1,1-dioxo-hexahydro-1,2-thiazin-2-yl)phenyl)ethyl)-1,3-oxazinan-2-one] | < 0.1 µM | 43.1% | 
C[C@@H](c1ccc(-c2ccc(F)cc2F)cc1)N1CC[C@](CCC(C)(C)O)(c2ccccc2)OC1=O [EXAMPLE 260, (R)-3-((S)-1-(2′,4′-difluorobiphenyl-4-yl)ethyl)-6-(3-hydroxy-3-methylbutyl)-6-phenyl-1,3-oxazinan-2-one] | < 0.1 µM | 94.1% | 
CC[C@@H](c1ccc(-c2ccc(F)cc2F)cc1)N1CC[C@](CCCO)(c2ccc(F)cc2)OC1=O [EXAMPLE 261, (R)-3-((S)-1-(2′,4′-difluorobiphenyl-4-yl)propyl)-6-(4-fluorophenyl)-6-(3-hydroxypropyl)-1,3-oxazinan-2-one] | < 0.1 µM | 96.2% | 
CNCC(O)C[C@]1(c2ccc(F)cc2)CCN([C@@H](C)c2ccc(-c3ccc(F)cc3F)cc2)C(=O)O1 (stereo partly drawn) [EXAMPLE 265, (6S)-3-((S)-1-(2′,4′-difluorobiphenyl-4-yl)ethyl)-6-(4-fluorophenyl)-6-(2-hydroxy-3-(methylamino)propyl)-1,3-oxazinan-2-one] | < 0.1 µM | 56.8% | 

Second part, led by results:

IC50 | inhibition at 0.1 µM [1] | SMILES | inhibition at 0.1 µM [2]
< 0.1 µM | 72.1% | C=CC[C@]1(c2ccc(F)cc2)CCN([C@@H](C)c2ccc(-c3nnc(C)o3)cc2)C(=O)O1 [EXAMPLE 215, (R)-6-allyl-6-(4-fluorophenyl)-3-((S)-1-(4-(5-methyl-1,3,4-oxadiazol-2-yl)phenyl)ethyl)-1,3-oxazinan-2-one] | 
< 0.1 µM | 92.6% | C[C@@H](c1ccc(-c2cccs2)cc1)N1CC[C@](CCCO)(c2ccccc2)OC1=O [EXAMPLE 216, (R)-6-(3-hydroxypropyl)-6-phenyl-3-((S)-1-(4-(thiophen-2-yl)phenyl)ethyl)-1,3-oxazinan-2-one] | 
< 0.1 µM | 88% | C=CC[C@]1(c2ccc(F)cc2)CCN([C@@H](C)c2ccc(N3CCOCC3)cc2)C(=O)O1 [EXAMPLE 217, (R)-6-allyl-6-(4-fluorophenyl)-3-((S)-1-(4-morpholinophenyl)ethyl)-1,3-oxazinan-2-one] | 
< 0.1 µM | 97.3% | CC(O)C[C@]1(c2ccccc2)CCN([C@@H](C)c2ccc(-c3ccc(F)cc3)cc2)C(=O)O1 (stereo partly drawn) [EXAMPLE 224, (6S)-3-((1S)-1-(4′-fluorobiphenyl-4-yl)ethyl)-6-(2-hydroxypropyl)-6-phenyl-1,3-oxazinan-2-one] | 
< 0.1 µM | 90.7% | CCC[C@]1(c2ccccc2)CCN([C@@H](C)c2ccc(-c3ccc(F)cc3F)cc2)C(=O)O1 [EXAMPLE 226, (R)-3-((S)-1-(2′,4′-difluorobiphenyl-4-yl)ethyl)-6-phenyl-6-propyl-1,3-oxazinan-2-one] | 
< 0.1 µM | 57% | C=CC[C@]1(c2ccc(F)cc2)CCN([C@@H](C)c2ccc(N3CCN(C)CC3)cc2)C(=O)O1 [EXAMPLE 231, (R)-6-allyl-6-(4-fluorophenyl)-3-((S)-1-(4-(4-methylpiperazin-1-yl)phenyl)ethyl)-1,3-oxazinan-2-one] | 
< 0.1 µM | 96.9% | C[C@@H](c1ccc(-c2ccc(F)cc2)cc1)N1CC[C@](CCCO)(c2cccs2)OC1=O [EXAMPLE 232, (R)-3-((S)-1-(4′-fluorobiphenyl-4-yl)ethyl)-6-(3-hydroxypropyl)-6-(thiophen-2-yl)-1,3-oxazinan-2-one] | 
< 0.1 µM | 96.7% | CC[C@@H](c1ccc(Br)cc1)N1CC[C@](CCCO)(c2ccc(F)cc2)OC1=O [EXAMPLE 241, (R)-3-((S)-1-(4-bromophenyl)propyl)-6-(4-fluorophenyl)-6-(3-hydroxypropyl)-1,3-oxazinan-2-one] | 
